In test [1] the test system is Rattus norvegicus. The test is described as follows: Inhibition of LPS-induced TNF-alpha production in rats 0.5 hr after peroral administration. It is filed as functional. As to conditions: po, read-out: ID50 (the source's name).
Test [2] has as its target Phosphodiesterase 4 (Homo sapiens, UniProt P27815+Q08499+Q07343+Q08493). The test is described as follows: Inhibition of phosphodiesterase 4 (PDE4) prepared from human U937 cells. As to conditions: u-937. It is filed as cell-based.
The subject of test [3] is Rattus norvegicus. The test is described as follows: Inhibition of LPS-induced TNF-alpha production in rats at 3 mg/kg peroral dose after 0.5 hr. It is filed as functional. To be noted: route oral.
Test [4] has as its system Cavia porcellus. Put plainly: Inhibition of SRS-A-mediated bronchoconstriction and airway microvascular leakage in sensitized guinea pigs at 0.5 mg/kg 1 hr after oral dose. As to conditions: Lung, read-out: ID50 (the source's name). It is filed as functional.
The test system of test [5] is Rattus norvegicus. The test is described as follows: Inhibition of gastric emptying in rats after peroral administration. Format: functional. As to conditions: Stomach, po, read-out: ID50 (the source's name).
For test [6], the species on record is Homo sapiens. The test is described as follows: Inhibition of LPS-induced TNF-alpha production in human whole blood. Format: functional, organism-based.
The test system of test [7] is Rattus norvegicus. Put plainly: Inhibition of LPS-induced TNF-alpha production in rats at 1 mg/kg peroral dose after 0.5 hr. It is filed as functional. To be noted: route oral.
Test [8] deals with Cavia porcellus. Put plainly: Inhibition of SRS-A-mediated bronchoconstriction and airway microvascular leakage in sensitized guinea pigs at 0.15 mg/kg 1 hr after oral dose. It is filed as functional. To be noted: Lung, read-out: ID50 (the source's name).

Broadly, the IC50 is the midpoint of a concentration-inhibition curve. A high value points to weaker potency. In general, inhibition in vivo refers to the drop in the measured response relative to a control, in per cent. Low readings indicate a weak effect, high ones a strong effect.

Structures are written as SMILES.

`COc1ccc(C2(C#N)CCN(CC(=O)NO)CC2)cc1OC1CCC1`: the ED50 in test [1] worked out at 0.03 mg/kg. The molecule also displayed a 50% inhibitory concentration (IC50) in test [2] of 0.18 nM.
`CCOc1ccc(C2(C#N)CCN(CC(=O)O)CC2)cc1OC1CCCC1`: the IC50 in test [2] was 2500 nM.
For `CC(C)Oc1ccc(C2(C#N)CCN(CC(=O)NO)CC2)cc1OC1CCCC1`, in test [2], the IC50 is over 30 nM.
In turn, `COc1ccc(C2(C#N)CCN([C@H](C)C(=O)NO)CC2)cc1OC1CCCC1` yielded an inhibition in vivo at 3 mg/kg in test [3] of 26%. Moreover, the 50% inhibitory concentration (IC50) in test [2] worked out at 0.91 nM.
In test [2], `COc1ccc(C2(C#N)CCN([C@H](C)C(=O)O)CC2)cc1OC1CCCC1` showed an IC50 of over 300 nM.
`COc1ccc(C2(C#N)CCN(CC(=O)O)CC2)cc1OC1CCC1` displayed an IC50 in test [2] of over 100 nM.
In the case of `COc1ccc(C2(C#N)CCN(CC(=O)O)CC2)cc1OC1CCCC1`, in test [3], the inhibition in vivo at 3 mg/kg worked out at 74%. Moreover, the IC50 in test [2] is recorded as 66 nM.
As for `CCOc1ccc(C2(C#N)CCN(CC(=O)NO)CC2)cc1OC1CCCC1`, the ED50 in test [1] is 0.7 mg/kg. This molecule also registered an IC50 in test [2] of 6.2 nM.
Molecule `CC(C)Oc1ccc(C2(C#N)CCN(CC(=O)O)CC2)cc1OC1CCCC1` had an IC50 in test [2] of over 1000 nM.
As to `N#CC1(c2ccc(OC(F)F)c(OC3CCCC3)c2)CCN(CC(=O)O)CC1`, the results for the ED50 in test [4], in test [5] and in test [1] were 4.2 mg/kg, 4.7 mg/kg and 1.1 mg/kg, respectively. Moreover, the IC50 in test [2] was 65 nM; in test [6] it was 840 nM.
In the case of `COc1ccc(C2(C#N)CCN(CC(=O)NO)CC2)cc1OC(C)C`, the ED50 in test [1] was 0.09 mg/kg. In test [2], this molecule gave an IC50 of 1 nM.
`COc1ccc(C2(C#N)CCN(C(C)(C)C(=O)O)CC2)cc1OC1CCCC1` yielded an IC50 in test [2] of over 1000 nM.
Turning to `COc1ccc(C2(C#N)CCN(C3(C(=O)O)CC3)CC2)cc1OC1CCCC1`, the IC50 in test [2] was over 1000 nM.
`COc1ccc(C2(C#N)CCN([C@@H](C)C(=O)NO)CC2)cc1OC1CCCC1`: the inhibition in vivo at 3 mg/kg in test [3] was determined as 49%. Besides, in test [2], the IC50 is recorded as 5.9 nM.
The molecule `COc1ccc(C2(C#N)CCN([C@@H](C)C(=O)O)CC2)cc1OC1CCCC1` came in with an IC50 in test [2] of over 300 nM.
In turn, `COc1ccc(C2(C#N)CCN(CC(=O)O)CC2)cc1OCC1CC1` returned an inhibition in vivo at 1 mg/kg in test [7] of 12%. In test [2], this molecule yielded an IC50 of over 100 nM.
As for `COc1ccc(C2(C#N)CCN(CC(=O)O)CC2)cc1OC1Cc2ccccc2C1`, in test [3], the inhibition in vivo at 3 mg/kg is 29%. The same molecule showed an IC50 in test [2] of 67 nM.
Turning to `COc1ccc(C2(C#N)CCN(C3(C(=O)NO)CC3)CC2)cc1OC1CCCC1`, the ED50 in test [1] came to 2 mg/kg. The same molecule registered an IC50 in test [2] of 4.6 nM.
For `COc1ccc(C2(C#N)CCN(CC(=O)NO)CC2)cc1OCC1CC1`, the ED50 in test [8] is 0.3 mg/kg; in test [5], 0.3 mg/kg; in test [1], 0.03 mg/kg. For the same molecule, the IC50 in test [2] came out at 0.29 nM; in test [6] it was 2.1 nM.
Take `CCOc1cc(C2(C#N)CCN(CC(=O)NO)CC2)ccc1OC`: the ED50 in test [8] was determined as 0.04 mg/kg; in test [5] it was 0.7 mg/kg; in test [1], 0.04 mg/kg. Further, the IC50 stood at 0.52 nM in test [2] and 5 nM in test [6].
Take `COc1ccc(C2(C#N)CCN(CC(=O)O)CC2)cc1OC(C)C`: the IC50 in test [2] is over 100 nM.
Regarding `N#CC1(c2ccc(OC(F)F)c(OC3CCCC3)c2)CCN(CC(=O)NO)CC1`, in test [1], the ED50 came out at 0.02 mg/kg. Further, the IC50 in test [2] was found to be 0.051 nM.
Molecule `COc1ccc(C2(C#N)CCN(CC(=O)O)CC2)cc1OC` displayed an IC50 in test [2] of over 100 nM.
With `COc1ccc(C2(C#N)CCN(C(C)(C)C(=O)NO)CC2)cc1OC1CCCC1`, the IC50 in test [2] worked out at 34 nM.
Regarding `COc1ccc(C2(C#N)CCN(CC(=O)NO)CC2)cc1OC`, the ED50 in test [1] was 0.23 mg/kg. Also, the IC50 in test [2] is 4.7 nM.
For `COc1ccc(C2(C#N)CCN(CC(=O)NO)CC2)cc1OC1CCCC1`, the ED50 was 0.3 mg/kg in test [8], 0.3 mg/kg in test [5] and 0.04 mg/kg in test [1]. In addition, the IC50 in test [2] is 0.08 nM; in test [6], 8.9 nM.
In turn, `CCOc1cc(C2(C#N)CCN(CC(=O)O)CC2)ccc1OC` gave an inhibition in vivo at 1 mg/kg in test [7] of 0%. In test [2], the IC50 is on record as over 100 nM.
As for `COc1ccc([C@]2(C#N)CC[C@@H](C(=O)O)CC2)cc1OC1CCCC1` [CILOMILAST], the ED50 in test [8] came out at 4.5 mg/kg; in test [5] it was 5.7 mg/kg; in test [1] it was 1.7 mg/kg.

The values above are taken from ChEMBL document CHEMBL1146692, “Highly potent PDE4 inhibitors with therapeutic potential” (Bioorg Med Chem Lett, 2004).
